Patent US11331290B2, “Niclosamide for the treatment of cancer metastasis” (Max-Delbrück-Centrum für Molekulare Medizin in der …, priority 2011, dated 2022)

Legend:
[1] = tested on: SW620, LS174T, SW480 and DLD-1 cells; assay: Anchorage-dependent cell proliferation (MTT); format: cell-based, human; conditions: all four cell lines, 1 μM daily
Protocol: For cell proliferation determination of HCT116, SW620, LS174T, SW480 and DLD-1 cells 2×10^3 cells were seeded in 96-well-plates (for each day one plate) and were given 24 hours to attach to the bottom of the well. Cells were from then on treated daily with 1 μM niclosamide or the respective amount of DMSO. For determination of viable cells 3-(4,5-dimethyl-2-thiazol)-2,5-diphenyl-2H-tetrazolium bromide (MTT; Sigma) was added to a final concentration of 0.5 mg per mL and incubated for 3 hours at 37° C. and 5% CO2 in a humidified incubator. […] Crystallized MTT was resolved by 10% SDS in 10 mM HCl and the absorption was measured at 560 nm. […] The average MTT metabolisation was determined of two independent experiments each performed in triplicate.
(A) S100A4 expression under niclosamide treatment. […] S100A4 expression was analyzed with qRT-PCR and immunoblot. […] Migration rates of cells treated with 1 μM niclosamide for 24 hours were determined in a Boyden chamber assay values were normalized to solvent-treated SW620 cells. […] Invaded cells in the lower chamber were counted and normalized to solvent-treated SW620 cells. Differences in solvent vs. niclosamide-treated cells were analyzed by Student's t test. […] The amount of viable cells per well was determined by MTT assay. […] (G) Quantification of colonies formed. Number of colonies (of more than 4 cells) was counted and normalized to solvent-treated SW620 cells. […]

[2] = tested on: WNT/CTNNB1 pathway (LEF/TCF transcription factor reporter); assay: WNT/CTNNB1 pathway activity reporter assay (TOP/FOPflash); format: cell-based, human; conditions: 24 h
From the text: The lymphoid enhancer-binding factor 1 (LEF)/transcription factor (TCF) activity reporter assay, also known as TOP/FOPflash assay (Promega, Madison, Wis.) was previously used to analyze the WNT/CTNNB1 pathway activity in human colon cancer cells (24). It comprises the TOPflash plasmid which contains a hexameric repetition of the LEF/TCF-binding element upstream of a thymidine kinase (TK) promoter and firefly luciferase as reporter gene. The FOPflash plasmid comprised the exact sequence of the TOPflash plasmid, but with point mutated LEF/TCF-binding sites. In the assay, 8×10^4 HCT116 cells were plated in 24-well-plates and were given 15 hours to attach to the bottom of the well. Cells were transfected with TOPflash or FOPflash plasmids using Metafecten according to the manufacturer's instruction 24 hours before they were treated with 1 μM niclosamide or the respective amount of DMSO for another 24 hours. Luciferase activity as read out for LEF/TCF activity and thus WNT/CTNNB1 pathway activity was measured by the Steady Glow™ Luciferase Assay System (Promega) according to the manufacturer's instructions in the luminescence reader SpectraFluor Plus (Tecan) with 1500 milliseconds exposure time and a gain of 150. TOPflash reporter gene expression (representing the WNT pathway activity) was normalized to FOPflash reporter gene expression (representing basal reporter gene expression and transfection efficiency). The average of three independent experiments is given here, whereas each experiment was performed in duplicate.
For WNT pathway analysis the following cells were applied: HCT116 cells (heterozygous for gain-of-function-mutated CTNNB1; wt/mut), HAB-68mut cells (deletion mutant of HCT116, expressing only gain-of-function-mutated CTNNB1: −/mut) and HAB-92 wt cells (deletion mutant of HCT116, expressing only wild-type CTNNB1: wt/−). (A) CTNNB1 genotype dependent effect of niclosamide on LEF/TCF transcription factor reporter gene expression. Cells were treated with 1 μM niclosamide for 24 hours. Reporter gene expression was determined by luciferase activity measurement. For each condition and cell line TOPflash expression was normalized to FOPflash expression. (B) CTNNB1 genotype dependent effect of niclosamide on S100A4 expression. Cells were treated with 1 μM niclosamide for 24 hours. S100A4 expression was analyzed by qRT-PCR and immunoblot. (C) CTNNB1 genotype dependent effect of niclosamide on migration rates. Cells were treated with 1 μM niclosamide for 24 hours and cell migration was determined by Boyden chamber assay. Data represents mean±SE of at least three independent experiments. Differences were analyzed by Student's t test (n.s.; not statistically significant). (D) Nuclear localization of CTNNB1 under niclosamide treatment. Nuclear extracts of HCT116 cells treated with the indicated concentrations of niclosamide for 18 hours were analyzed by immunoblot. (E) Effect of niclosamide on CTNNB1/TCF complex. Nuclear extracts of HCT116 cells treated with the indicated concentrations of niclosamide for 18 hours were analyzed by EMSA for the TCF-binding site of the S100A4 promoter. Supershift was performed by addition of a monoclonal anti-CTNNB1 antibody. (F) Presence of CTNNB1 on the S100A4 promoter under niclosamide treatment. HCT116 cells were treated with 1 μM niclosamide for 18 hours and processed for ChIP assay. Soluble chromatin was immunoprecipitated with a monoclonal anti-CTNNB1 antibody or a nonspecific control IgG antibody. Primers used in PCR amplified a 167 bp fragment of the S100A4 promoter or 149 bp fragment of the FOS promoter. The input verified the integrity of the PCR. […] Data shown are representatives of at least two independent experiments.

**Q.** Which results are given for `O=C(Nc1ccc([N+](=O)[O-])cc1Cl)c1cc(Cl)ccc1O` [niclosamide, 2′,5-dichloro-4′-nitrosalicylanilide]?
**A.** anchorage-dependent cell proliferation [1]: inhibited; WNT pathway activity, mean difference control vs niclosamide ([2]; HAB-68mut, 1 μM): 0.90; WNT pathway activity (TOPflash normalized to FOPflash), mean ([2]; HAB-68mut, 1 μM, control 1.39): 0.50; WNT pathway activity, mean difference control vs niclosamide ([2]; HAB-92 wt, 1 μM): 0.15; WNT pathway activity (TOPflash normalized to FOPflash), mean ([2]; HAB-92 wt, 1 μM, control 0.36): 0.21; WNT pathway activity, mean difference control vs niclosamide ([2]; HCT116, 1 μM): 0.61; WNT pathway activity (TOPflash normalized to FOPflash), mean ([2]; HCT116, 1 μM, control 1.00): 0.39
